Test systems include MCF7 breast; M14 melanoma; SF-268 CNS; SF-295 CNS; ACHN renal; NCI-H23 lung; SNB-19 CNS; NCI-H226 lung; MDA-MB-435; PC-3 prostate; HCT-15 colon; SF-539 CNS; HT29 colon; OVCAR-3 ovarian; OVCAR-4 ovarian; NCI/ADR-RES ovarian.
Experiment in all cases: NCI anticancer screen, dose series, 48 h

SMILES strings stand for the structures.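 Exposure lasted 48 hours, with cells grown in 96-well plates and compounds tested at five concentrations. GI50 marks 50% less growth. TGI is the concentration that stops growth completely.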 Where a SMILES comes first, the peptide text is derived from it. The star is where a group is joined. Cbz = O=C(OCc1ccccc1)*

`CCN(CC)P(=O)(c1ccc2c(c1)OCCOCCOCCOCCO2)N(CC)CC`: the TGI in the test on MCF7 breast, in the test with M14 melanoma, in the test on SF-268 CNS, with SF-295 CNS, with ACHN renal and in the test with NCI-H23 lung was over 100 µM in each case. Further, the TGI in the test with SNB-19 CNS, in the test with NCI-H226 lung, in the test on MDA-MB-435, in the test with PC-3 prostate, in the test with HCT-15 colon and in the test with SF-539 CNS was over 100 µM in each case.
For the compound `CS(=O)(=O)N(CCC#N)c1ccc(/C=C2\N=C(c3ccccc3Cl)OC2=O)cc1`, the TGI in the test with M14 melanoma, in the test on SF-268 CNS, in the test with SF-295 CNS, with ACHN renal, with NCI-H23 lung and in the test on HT29 colon was over 100 µM throughout. The TGI with SNB-19 CNS, in the test on NCI-H226 lung, in the test with OVCAR-3 ovarian, with HCT-15 colon and with SF-539 CNS was over 100 µM each time.
For the compound `COc1cc2c(c3nc4ccccc4nc13)-c1ccc(SC)c(=O)cc1[C@@H](NC(C)=O)CC2`, the TGI in the test on MCF7 breast was over 100 µM; in the test with M14 melanoma, over 100 µM; in the test with SF-268 CNS, over 100 µM; in the test with OVCAR-4 ovarian it was over 69.2 µM; in the test on SF-295 CNS, over 100 µM; in the test with ACHN renal it was over 100 µM. The TGI is 0.066 µM in the test with NCI-H23 lung; over 100 µM in the test with SNB-19 CNS; 53 µM with NCI/ADR-RES ovarian; 0.0693 µM with MDA-MB-435; over 100 µM with OVCAR-3 ovarian; over 100 µM in the test with PC-3 prostate. Also, the values for the TGI with HCT-15 colon and in the test on SF-539 CNS were over 21.7 µM and 0.0603 µM, respectively.
For `O=C(CSc1nc2ccccc2c(=O)n1-c1ccccc1)N=Nc1c(O)[nH]c2ccc(Br)cc12`, the TGI was over 27.9 µM in the test with MCF7 breast; 6.87 µM with M14 melanoma; over 38.3 µM in the test on SF-268 CNS; 8.93 µM in the test on SF-295 CNS; over 94.5 µM with ACHN renal; 10.8 µM in the test with NCI-H23 lung. For the same compound, the TGI with HT29 colon was 3.7 µM; in the test on SNB-19 CNS it was 27.2 µM; in the test with NCI/ADR-RES ovarian it was 22.9 µM; in the test with MDA-MB-435, 34 µM; with OVCAR-3 ovarian, 20 µM; with PC-3 prostate it was 4.03 µM. Besides, the figures for the TGI in the test with HCT-15 colon and with SF-539 CNS were 30.2 µM and 6.13 µM, respectively.
Take `Cc1c2ccccc2c(=O)n2c(-c3ccccn3)cccc12`: the TGI in the test on M14 melanoma, in the test with SF-268 CNS, in the test on OVCAR-4 ovarian, with SF-295 CNS, in the test with ACHN renal and in the test with NCI-H23 lung was over 100 µM in each case. The TGI in the test with HT29 colon, in the test with SNB-19 CNS, in the test on NCI-H226 lung, in the test on OVCAR-3 ovarian, in the test on HCT-15 colon and with SF-539 CNS was over 100 µM each time.
Consider `CN(C)CCNc1c(O)c2c(c(O)c1Cl)C(=O)C=CC2=O`, for which the TGI was 3.64 µM in the test on M14 melanoma; 35.2 µM in the test on SF-268 CNS; 3.29 µM in the test with OVCAR-4 ovarian; 4.05 µM in the test on SF-295 CNS; 9.76 µM in the test with ACHN renal; 4.25 µM in the test with NCI-H23 lung. Besides, the TGI in the test on HT29 colon worked out at 3.29 µM; in the test on SNB-19 CNS, 3.76 µM; in the test on NCI/ADR-RES ovarian it was 7.08 µM; with NCI-H226 lung it was 50.1 µM; in the test on MDA-MB-435 it was 3.68 µM; in the test on OVCAR-3 ovarian, 3.61 µM. For the same compound, the TGI amounted to 17.8 µM in the test on PC-3 prostate, 4.29 µM in the test with HCT-15 colon and 3.28 µM in the test with SF-539 CNS.
On to `Fc1ccc(F)c(C=NC23CC4CC(CC(C4)C2)C3)c1`, for which the TGI in the test with MCF7 breast, in the test on M14 melanoma, with SF-268 CNS, in the test on OVCAR-4 ovarian, with SF-295 CNS and in the test on ACHN renal was over 10 µM each time. Further, the TGI with NCI-H23 lung, with HT29 colon, in the test with SNB-19 CNS, in the test with NCI/ADR-RES ovarian, in the test on NCI-H226 lung and in the test with OVCAR-3 ovarian was over 10 µM each time. Besides, the TGI in the test with PC-3 prostate, with HCT-15 colon and in the test with SF-539 CNS was over 10 µM in each case.
For the compound `CCOC(=O)CCC(NC(=O)C(CC(=O)OC)NC(=O)OCc1ccccc1)C(=O)NC(CC(=O)OC)C(=O)NC(CCC(=O)OCC)C(=O)NC(CC(=O)OC)C(=O)NC(CCC(=O)OCC)C(=O)NC(CC(=O)OCC)C(=O)OCC` (centres undefined) (Cbz-D(OMe)E(OEt)D(OMe)E(OEt)D(OMe)E(OEt)D(OEt)-OEt; configuration not given here), the TGI in the test with MCF7 breast, in the test on OVCAR-4 ovarian, with ACHN renal, in the test with NCI-H23 lung, with HT29 colon and in the test with SNB-19 CNS was over 100 µM throughout. The TGI in the test on NCI-H226 lung, in the test on MDA-MB-435, in the test on OVCAR-3 ovarian, in the test with PC-3 prostate and with HCT-15 colon was over 100 µM throughout.
As for `[N-]=[N+]=NC1C(Cl)C(=O)NC(=O)N1[C@H]1C[C@H](O)[C@@H](CO)O1` (some centres undefined), the TGI with M14 melanoma, in the test on SF-268 CNS, in the test with OVCAR-4 ovarian, in the test on SF-295 CNS, in the test with ACHN renal and in the test on NCI-H23 lung was over 100 µM in each case. The TGI with HT29 colon, in the test on SNB-19 CNS, in the test on OVCAR-3 ovarian and in the test on SF-539 CNS was over 100 µM throughout. For the same compound, in the test with SF-268 CNS, the GI50 is 94 µM.
As to `Cn1c2ccccc2n2c(=O)c(-c3ccc(Cl)cc3)nnc12`, the TGI with MCF7 breast, in the test on M14 melanoma, with SF-268 CNS, in the test with OVCAR-4 ovarian, with SF-295 CNS and in the test with ACHN renal was over 100 µM each time. The TGI with NCI-H23 lung, with HT29 colon, in the test with SNB-19 CNS, with NCI/ADR-RES ovarian, with NCI-H226 lung and in the test with MDA-MB-435 was over 100 µM in each case. For the same compound, the TGI in the test on HCT-15 colon and in the test with SF-539 CNS was over 100 µM each time.

Source of the values: PubChem BioAssay (NCI).
